Measured values taken from patent publication US20150232457A1, “CRYSTALLINE FORMS OF AFATINIB DI-MALEATE” (RATIOPHARM GMBH, priority 2011, published 2015).
“And” between values parts separate entries of the source, which are not always exact repeats. Equal values may be shown once. Read-outs that look alike come from different tables or passages of the source.

Assays:
[1] = crystalline form of US 2005/0085495 (WO2005/037824); cited from earlier work
[2] = Chemical stability at 30° C./65% relative humidity for 4 weeks (HPLC); format: physicochemical; conditions: stable means purity change less than about 1% by HPLC, solid state form maintained
[3] = Investigation of hygroscopicity (dynamic vapour sorption) with Karl-Fischer titration of the product; format: physicochemical
Experimental: Karl-Fischer titration was carried out using […] from Merck (HX908240). The instructions of the manual were followed and each sample was analyzed in triplicate. […] Investigation of Hygroscopicity (Dynamic Vapour Sorption (DVS)) Instrument: SPSx-1μ, (Projekt Messtechnik) Temperature: 25° C. Humidity cycles: [table] […] Then the sample was analyzed by XRD diffraction.

[4] = Stability and hygroscopicity at 40° C./75% relative humidity; format: physicochemical
Text: The term “non-hygroscopic” as used herein, and unless stated otherwise, refers to crystalline Afatinib di-maleate uptaking/absorbing less than 0.2% (w/w) of atmospheric water to the crystalline Afatinib di-maleate in the below specified conditions, as measured by Karl-Fischer (KF) titration or by monitoring the weight increase during dynamic vapour sorption (DVS) test.

For `CN(C)C/C=C/C(=O)Nc1cc2c(Nc3ccc(F)c(Cl)c3)ncnc2cc1O[C@H]1CCOC1` [Afatinib di-maleate, (E)-4-Dimethylamino-but-2-enoic acid {4-(3-chloro-4-fluoro-phenylamino)-7-[(S)-(tetrahydro-furan-3-yl)oxy]-quinazolin-6-yl}-amide], the hygroscopicity [1] is listed as “limited hygroscopisity” and the polymorphic stability [1] is listed as “polymorphically stable”.

For `CN(C)C/C=C/C(=O)Nc1cc2c(Nc3ccc(F)c(Cl)c3)ncnc2cc1O[C@H]1CCOC1` [Form C, (E)-4-Dimethylamino-but-2-enoic acid {4-(3-chloro-4-fluoro-phenylamino)-7-[(S)-(tetrahydro-furan-3-yl)oxy]-quinazolin-6-yl}-amide], the chemical stability [2] was “chemically stable”.

With `CN(C)C/C=C/C(=O)Nc1cc2c(Nc3ccc(F)c(Cl)c3)ncnc2cc1O[C@H]1CCOC1` [Form E, (E)-4-Dimethylamino-but-2-enoic acid {4-(3-chloro-4-fluoro-phenylamino)-7-[(S)-(tetrahydro-furan-3-yl)oxy]-quinazolin-6-yl}-amide] the “water content (% by weight), average” value ([3]; Karl-Fischer titration, average of triplicate, after DVS of Form A at 25° C.) was 7.00 % by weight, the “water content (% by weight)” value ([3]; Karl-Fischer titration, single determinations of a triplicate, after DVS humidity cycles of Form A at 25° C., 0-95% relative humidity, listed as Afatinib di-maleate after DVS of Form A) was 6.95 % by weight and 7.15 % by weight and 6.90 % by weight and the “decomposition after DVS” value ([3]; obtained product analysed by 1H-NMR and HPLC) was “no decomposition”. The hygroscopicity [4] was “not hygroscopic” and the polymorphic stability ([4]; stable means less than 1% converts to any other solid state form) was “polymorphically stable”.
